Each structure is given as a SMILES string. Active and inactive are the calls of the source. The calls are words filed in the database; no cut-off is given here.

These results are taken from ChEMBL document CHEMBL4266050, “Metabolomics-Driven Discovery of Meroterpenoids from a Mussel-Derived Penicillium ubiquetum” (J Nat Prod, 2018).

Data set [1] deals with KB. Nature of the data set: Cytotoxicity against human KB cells at 50 uM by MTT assay. It is filed as functional, cell-based.
Data set [2] relates to MCF7. Nature of the data set: Cytotoxicity against human MCF7 cells at 50 uM by MTT assay. The class given is functional, cell-based. On the technique in general: Tetrazolium dyes change colour on reduction, which living cells bring about.
Data set [3] can be described thus: Stability of the compound. It is filed as physicochemical.
Data set [4] deals with MCF7. Nature of the data set: Cytotoxicity against human MCF7 cells by MTT assay. It is filed as functional, cell-based.
Data set [5] has as its system KB. Nature of the data set: Cytotoxicity against human KB cells by MTT assay. It is filed as functional, cell-based.

For the compound `COC(=O)[C@]12[C@@H]3[C@H]4OC(=O)[C@]3(C)CC3=C(C)C5=C(C[C@@H](O[C@]1(O)[C@H](C)O4)[C@@]32C)C(C)(C)OC(=O)C5`, the outcome in the data set on KB [1] and in the data set with MCF7 [2] was inactive.

`COC(=O)[C@]12[C@@H]3[C@H]4OC(=O)[C@]3(C)C[C@H]3[C@@H](C)C5=CC(=O)OC(C)(C)C5=C[C@@H](O[C@]1(O)[C@H](C)O4)[C@@]32C`: the result in the data set on KB [1] and in the data set on MCF7 [2] was inactive.

Consider `COC(=O)[C@]12C(=O)[C@H](C)O[C@@H]3OC(=O)[C@](C)(C[C@H]4[C@@H](C)C5=CC(=O)OC(C)(C)C5=C[C@@H](O)[C@@]41C)[C@@H]32`, for which the Stability result in data set [3] was “Unstable”.

As a reminder, the IC50 is the point on the concentration scale where inhibition reaches its midpoint. Read a low IC50 as greater potency in that assay. On to `CC(=O)O[C@@]12CO[C@@H]1C[C@H](O)[C@@]1(C)C(=O)[C@H](O)C3=C(C)[C@@H](OC(=O)[C@H](O)[C@@H](NC(=O)OC(C)(C)C)c4ccccc4)C[C@@](O)([C@@H](OC(=O)c4ccccc4)[C@H]21)C3(C)C` [DOCETAXEL ANHYDROUS], for which the IC50 was found to be 10.3 nM with MCF7 [4] and 38 nM in the data set with KB [5].

Turning to `COC(=O)[C@@]12[C@@]3(C)[C@H]4C=C5C(=CC(=O)OC5(C)C)[C@H](C)[C@@H]3C[C@@]3(C)C(=O)O[C@@H](O[C@@H](C)[C@@]1(O)O4)[C@@]23O`, the result with KB [1] and with MCF7 [2] was inactive.

As to `COC(=O)[C@@]12[C@@H]3[C@H]4OC(=O)[C@]3(C)C[C@@H]3[C@]1(C)[C@@H](C=C1C(=CC(=O)OC1(C)C)[C@@]3(C)O)O[C@]2(O)[C@H](C)O4`, the outcome in the data set with KB [1] and with MCF7 [2] was inactive.

On to `COC(=O)O[C@@H]1C=C2C(=CC(=O)OC2(C)C)[C@H](C)[C@@H]2C[C@@]3(C)C(=O)O[C@H]4O[C@@H](C)C(=O)[C@@H]([C@@]12C)[C@]43O`, for which the outcome with KB [1] and with MCF7 [2] was inactive.

In the case of `COC(=O)[C@]12C(=O)[C@H](C)O[C@@H]3OC(=O)[C@](C)(C[C@H]4C(C)=C5CC(=O)OC(C)(C)C5=CC[C@@]41C)[C@@H]32`, the result in the data set with KB [1] and in the data set with MCF7 [2] was inactive.

In the case of `COC(=O)O[C@@H]1C=C2C(=CC(=O)OC2(C)C)[C@H](C)[C@@H]2C[C@@]3(C)C(=O)O[C@H]4O[C@@H](C)C(=O)[C@H]([C@H]43)[C@@]12C`, the result in the data set with KB [1] and with MCF7 [2] was inactive.

For `COC(=O)[C@@]1(C)O[C@H]2OC(=O)[C@@H]3[C@H]2[C@@](C)(C[C@H]2C(C)=C4CC(=O)OC(C)(C)C4=CC[C@]32C)C1=O`, the outcome in the data set on KB [1] and in the data set with MCF7 [2] was inactive.
